Our source for the IC50 and EC50 values is patent US20230135152A1 (ACURASTEM INCORPORATED, priority 2020, published 2023).

Assay [1] addresses T1, PIKFYVE (Homo sapiens, UniProt Q9Y2I7). In words: PIKFYVE assay (luciferase ADP-Glo kinase assay, Promega). In kind it is biochemical. The procedure, abridged:
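Kinase activity measured with a luciferase-based ADP-Glo read-out, which quantifies ADP formed by the enzyme.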
In general terms: ADP-Glo first removes unused ATP, then detects ADP through luciferase.

For assay [2], the target named is T1, PIKFYVE. In words: Cell-based Pikfyve inhibition activity assay (EEA1 staining, mean vesicle size in BJ fibroblast cells). The note with it: Table 4, 4 hours treatment, 3 μM Apilimod = 100% inhibition. On the procedure: BJ fibroblast cells were obtained from American Type Cell Culture (ATCC, CRL-2522). The cells were maintained in DMEM (Genesee Scientific, 25-500) supplemented with 10% fetal bovine serum (Genesee Scientific, 25-514) and 1% penicillin-streptomycin (Genesee Scientific, 25-512) at 37° C. in the atmosphere 5% CO2. BJ fibroblasts were plated into black flat clear bottom 96-well plates (Grenier, 655090) at a density of 3×10^3 per well and were allowed to attach in culture for 8-10 hours before drug treatment. Drugs were tested at eleven doses separated by 3 fold from 0.03 nM to 3000 nM in triplicates for 4 hours at 37° C. After 4 hours, treatment media was aspirated and replaced with 4% Paraformaldehyde (Electron Microscopy Science, 15714-S) and cells were fixed at room temperature for 5 minutes. 4% PFA in wells were then discarded and replaced with a blocking buffer consisting of 1×PBS with 0.1% Tween (Sigma-Aldrich, P1754-500), 5% Donkey Serum (Jackson ImmunoResearch, 017-000-121), and 1% BSA (Caisson Labs, B005-50GM) and incubated at room temperature for 30 minutes. Blocking buffer was then discarded and replaced with a primary EEA1 antibody (Fisher Scientific, BD610457) in a 1:1000 dilution and incubated at 4° C. overnight. Following overnight incubation, plates were washed with 1×PBS three times and incubated with secondary antibody Donkey anti-Mouse IgG, Alexa Fluor 555 (Invitrogen, A31570) (1:1000 dilution) for 1 hour at room temperature in the dark. Subsequently cell plates were washed with 1×PBS three times and can be stored at 4° C. if not being proceeding with imaging procedure.
Images were acquired with 20× objective (ImageXpress MicroConfocal, Molecular Devices) creating z-series of 5 planes (5 steps, […]), 16 tiles per well. Images were then analyzed using a custom CellProfiler protocol to obtain mean vesicle size. The mean vesicle size from 16 images was used as the output for each well. The mean vesicle size from 0.5% DMSO treated condition was considered as having no Pikfyve inhibition activity and the 3 μM Apilimod treated condition was considered as having 100% inhibition activity. The mean vesicle size was converted to % inhibition activity and the data was fitted to a dose-response curve using log(inhibitor) vs normalized response-variable slope using GraphPad Prism.

T1 sequence (Q9Y2I7 whole entry): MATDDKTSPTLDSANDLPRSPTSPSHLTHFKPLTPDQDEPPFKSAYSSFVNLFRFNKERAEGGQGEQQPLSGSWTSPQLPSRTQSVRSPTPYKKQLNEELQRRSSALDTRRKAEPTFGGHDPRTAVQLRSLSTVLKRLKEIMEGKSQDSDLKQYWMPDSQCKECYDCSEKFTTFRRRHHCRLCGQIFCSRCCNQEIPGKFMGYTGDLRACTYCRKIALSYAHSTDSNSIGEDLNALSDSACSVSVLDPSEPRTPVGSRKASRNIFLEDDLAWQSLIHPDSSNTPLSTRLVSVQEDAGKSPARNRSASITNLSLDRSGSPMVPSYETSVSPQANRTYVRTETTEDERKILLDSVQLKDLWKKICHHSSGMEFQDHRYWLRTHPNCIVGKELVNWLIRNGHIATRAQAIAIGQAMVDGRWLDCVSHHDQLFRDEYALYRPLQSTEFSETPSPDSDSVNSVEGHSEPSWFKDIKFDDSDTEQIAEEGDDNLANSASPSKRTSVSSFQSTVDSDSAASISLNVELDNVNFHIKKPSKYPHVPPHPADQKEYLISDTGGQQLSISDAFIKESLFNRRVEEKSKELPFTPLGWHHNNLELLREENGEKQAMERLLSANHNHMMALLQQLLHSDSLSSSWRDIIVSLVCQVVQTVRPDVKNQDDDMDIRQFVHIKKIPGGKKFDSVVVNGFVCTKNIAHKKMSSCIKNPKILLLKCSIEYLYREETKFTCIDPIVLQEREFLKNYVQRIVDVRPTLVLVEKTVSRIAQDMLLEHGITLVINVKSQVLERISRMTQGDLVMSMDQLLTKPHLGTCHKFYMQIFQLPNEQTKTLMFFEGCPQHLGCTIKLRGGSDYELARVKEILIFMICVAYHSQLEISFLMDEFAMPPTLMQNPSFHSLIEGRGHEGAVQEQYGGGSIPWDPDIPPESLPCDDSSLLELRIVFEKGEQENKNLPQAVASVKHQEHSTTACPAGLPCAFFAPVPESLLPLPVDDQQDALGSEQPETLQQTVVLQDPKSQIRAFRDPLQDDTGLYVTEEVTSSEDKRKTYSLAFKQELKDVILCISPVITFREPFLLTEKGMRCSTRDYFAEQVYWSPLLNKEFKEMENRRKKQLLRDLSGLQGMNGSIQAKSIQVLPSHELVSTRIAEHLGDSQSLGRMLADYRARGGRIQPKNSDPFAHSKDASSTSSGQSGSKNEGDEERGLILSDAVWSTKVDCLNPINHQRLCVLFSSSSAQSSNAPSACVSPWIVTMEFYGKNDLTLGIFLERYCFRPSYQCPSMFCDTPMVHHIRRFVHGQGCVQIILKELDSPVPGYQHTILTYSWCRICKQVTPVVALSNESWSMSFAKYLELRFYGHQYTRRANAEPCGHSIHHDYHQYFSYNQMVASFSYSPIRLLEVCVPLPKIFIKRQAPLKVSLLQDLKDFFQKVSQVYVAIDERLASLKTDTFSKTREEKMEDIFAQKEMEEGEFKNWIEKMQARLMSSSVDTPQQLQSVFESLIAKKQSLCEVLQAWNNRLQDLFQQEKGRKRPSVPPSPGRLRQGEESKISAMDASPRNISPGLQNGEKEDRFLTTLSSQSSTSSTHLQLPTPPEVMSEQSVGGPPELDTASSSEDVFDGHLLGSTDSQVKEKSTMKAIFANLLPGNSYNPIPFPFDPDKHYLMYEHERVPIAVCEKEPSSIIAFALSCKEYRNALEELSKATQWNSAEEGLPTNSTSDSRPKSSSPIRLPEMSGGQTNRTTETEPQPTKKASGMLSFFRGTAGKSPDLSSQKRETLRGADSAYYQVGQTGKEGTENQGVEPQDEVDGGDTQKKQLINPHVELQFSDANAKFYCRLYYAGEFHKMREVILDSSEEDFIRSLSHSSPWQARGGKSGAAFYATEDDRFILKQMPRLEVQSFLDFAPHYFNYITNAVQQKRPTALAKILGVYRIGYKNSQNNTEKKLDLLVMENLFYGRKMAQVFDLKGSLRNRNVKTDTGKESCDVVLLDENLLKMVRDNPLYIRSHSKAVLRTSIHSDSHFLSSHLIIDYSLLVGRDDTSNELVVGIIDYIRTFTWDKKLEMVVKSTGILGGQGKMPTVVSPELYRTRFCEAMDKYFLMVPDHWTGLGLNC

One may read the IC50 as the concentration at which inhibition is half-maximal. Lower therefore signals greater potency in that assay. The term EC50 denotes the midpoint of the concentration-response curve. A high value points to weaker potency. Compound `Cc1cc(-c2ccccc2)nn1-c1cc(N2CCOCC2)nc(OCCc2cnn(C)c2)n1` [Compound 127, 4-(2-(2-(1-methyl-1H-pyrazol-4-yl)ethoxy)-6-(5-methyl-3-phenyl-1H-pyrazol-1-yl)pyrimidin-4-yl)morpholine] gave an IC50 on PIKFYVE [1] (Table 3) of less than 3 nM. In addition, the EC50 at PIKFYVE [2] is 20 to 100 nM.

For `Cc1cc(Oc2ccn(-c3cc(N4CCOCC4)nc(OCCc4cnn(C)c4)n3)n2)ccn1` [Compound 302, 4-(2-(2-(1-methyl-1H-pyrazol-4-yl)ethoxy)-6-(3-((2-methylpyridin-4-yl)ox)-1H-pyrazol-1-yl)pyrimidin-4-yl)morpholine], the IC50 against PIKFYVE [1] (Table 3) was 10 to 100 nM. In addition, the EC50 on PIKFYVE [2] was more than 5000 nM.

Take `Cc1cccc(-c2ccn(-c3cc(N4CCOCC4)nc(NC(=O)CCc4cnn(C)c4)n3)n2)c1` [Compound 187]: at PIKFYVE [1] (Table 3), the half-maximal inhibitory concentration (IC50) was less than 3 nM. This compound had an EC50 at PIKFYVE [2] of 20 to 100 nM.

`Cn1ccc(COc2nc(N3CCOCC3)cc(-n3ccc(-c4ccccc4)n3)n2)n1` [Compound 115, 4-(2-((1-methyl-1H-pyrazol-3-yl)methoxy)-6-(3-phenyl-1H-pyrazol-1-yl)pyrimidin-4-yl)morpholine]: at PIKFYVE [1] (Table 3), the IC50 was less than 3 nM. The compound also returned an EC50 on PIKFYVE [2] of 100 to 500 nM.

At PIKFYVE [1] (Table 3), `COC(C)(CO)c1nc(N2CCOCC2)cc(-n2ccc(-c3cccc(C)c3)n2)n1` (stereo not drawn) [Compound 226, 2-methoxy-2-(4-morpholino-6-(3-(m-tolyl)-1H-pyrazol-1-yl)pyrimidin-2-yl)propan-1-ol] showed an IC50 of 3 to 10 nM. The compound further had an EC50 on PIKFYVE [2] of 500 to 5000 nM.

Turning to `COC(CC#N)c1nc(N2CCOCC2)cc(-n2ccc(-c3cccc(C)c3)n2)n1` (stereo not drawn) [Compound 72, 3-methoxy-3-(4-morpholino-6-(3-(m-tolyl)-1H-pyrazol-1-yl)pyrimidin-2-yl)propanenitrile], on PIKFYVE [1] (Table 2), the IC50 is less than 5 nM. The compound also showed an EC50 on PIKFYVE [2] of 100 to 500 nM.

In turn, `Cn1cc(CCOc2nc(N3CCOCC3)cc(-n3ccc(OCc4ccccc4F)n3)n2)cn1` [Compound 129, 4-(6-(3-((2-fluorobenzyl)oxy)-1H-pyrazol-1-yl)-2-(2-(1-methyl-1H-pyrazol-4-yl)ethoxy)pyrimidin-4-yl)morpholine] returned a 50% inhibitory concentration (IC50) against PIKFYVE [1] (Table 3) of 3 to 10 nM. This compound also displayed an EC50 at PIKFYVE [2] of 100 to 500 nM.

Consider `Cc1cccc(-c2ccn(-c3cc(N4CCOCC4)nc(OCCNc4ccccc4)n3)n2)c1` [Compound 99, N-(2-((4-morpholino-6-(3-(m-tolyl)-1H-pyrazol-1-yl)pyrimidin-2-yl)oxy)ethyl)aniline], for which the IC50 against PIKFYVE [1] (Table 3) lay in the range of 10 to 100 nM. Further, at PIKFYVE [2], the EC50 is 100 to 500 nM.

For `C/C=C/COc1nc(N2CCOCC2)cc(-n2ccc(-c3cccc(C)c3)n2)n1` [Compound 102, (E)-4-(2-(but-2-en-1-yloxy)-6-(3-(m-tolyl)-1H-pyrazol-1-yl)pyrimidin-4-yl)morpholine], the IC50 against PIKFYVE [1] (Table 3) was less than 3 nM. In addition, the EC50 on PIKFYVE [2] was less than 20 nM.

For the compound `Cc1cccc(-c2ccn(-c3cc(N4CCOCC4)nc(OCc4cn[nH]c4)n3)n2)c1` [Compound 120, 4-(2-((1H-pyrazol-4-yl)methoxy)-6-(3-(m-tolyl)-1H-pyrazol-1-yl)pyrimidin-4-yl)morpholine], the IC50 against PIKFYVE [1] (Table 3) lay within 10 to 100 nM. Further, the EC50 on PIKFYVE [2] was in the range of 100 to 500 nM.

In the case of `Cn1cc(CCOc2nc(N3CCOCC3)cc(-n3ccc(-c4ccccc4)n3)n2)cn1` [Compound 189, 4-(2-(2-(1-methyl-1H-pyrazol-4-yl)ethoxy)-6-(3-phenyl-1H-pyrazol-1-yl)pyrimidin-4-yl)morpholine], at PIKFYVE [1] (Table 3), the IC50 was less than 3 nM. Further, the EC50 at PIKFYVE [2] fell in the range of 20 to 100 nM.

`Cc1cccc(-c2cc(CN(C)C)n(-c3cc(N4CCOCC4)c4[nH]ccc4n3)n2)c1` [Compound 242, N,N-dimethyl-1-(1-(7-morpholino-1H-pyrrolo[3,2-b]pyridin-5-yl)-3-(m-tolyl)-1H-pyrazol-5-yl)] returned an IC50 against PIKFYVE [1] (Table 3) of 3 to 10 nM. For the same compound, at PIKFYVE [2], the EC50 was 500 to 5000 nM.

`C#CCCCOc1nc(N2CCOCC2)cc(-n2ccc(-c3cccc(C)c3)n2)n1` [Compound 108, 4-(2-(pent-4-yn-1-yloxy)-6-(3-(m-tolyl)-1H-pyrazol-1-yl)pyrimidin-4-yl)morpholine] gave an IC50 against PIKFYVE [1] (Table 3) of 3 to 10 nM. Also, the EC50 on PIKFYVE [2] was in the range of 20 to 100 nM.

In turn, `N#CCC(O)c1nc(N2CCOCC2)cc(-n2ccc(-c3ccccc3)n2)n1` (stereo not drawn) [Compound 181, 3-hydroxy-3-(4-morpholino-6-(3-phenyl-1H-pyrazol-1-yl)pyrimidin-2-yl)propanenitrile] displayed an IC50 at PIKFYVE [1] (Table 3) of 10 to 100 nM. In addition, the EC50 at PIKFYVE [2] was 500 to 5000 nM.

On PIKFYVE [1] (Table 3), `Cc1cccc(-c2ccn(-c3cc(N4CCOCC4)nc(OCCc4cn(C)cn4)n3)n2)c1` [Compound 118, 4-(2-(2-(1-methyl-1H-imidazol-4-yl)ethoxy)-6-(3-(m-tolyl)-1H-pyrazol-1-yl)pyrimidin-4-yl)morpholine] returned an IC50 of less than 3 nM. The compound further returned an EC50 on PIKFYVE [2] of 20 to 100 nM.

On PIKFYVE [1] (Table 3), `Cc1cccc(-c2ccn(-c3cc(N4CCOCC4)nc([C@H]4C[C@H](O)CO4)n3)n2)c1` [Compound 332, (3S,5R)-5-(4-morpholino-6-(3-(m-tolyl)-1H-pyrazol-1-yl)pyrimidin-2-yl)tetrahydrofuran-3-ol] showed an IC50 of 3 to 10 nM. For the same compound, the EC50 on PIKFYVE [2] fell in the range of 500 to 5000 nM.

`CC(=O)Nc1nc(N2CCOCC2)cc(-n2ccc(-c3cccc(C)c3)n2)n1` [Compound 66, N-(4-morpholino-6-(3-(m-tolyl)-1H-pyrazol-1-yl)pyrimidin-2-yl)acetamide]: on PIKFYVE [1] (Table 2), the IC50 was less than 5 nM. In addition, at PIKFYVE [2], the EC50 fell in the range of 100 to 500 nM.

With `Cc1cccc(-c2ccn(-c3cc(N4CCOCC4)c4[nH]cc(C)c4n3)n2)c1` [Compound 335, 4-(3-methyl-5-(3-(m-tolyl)-1H-pyrazol-1-yl)-1H-pyrrolo[3,2-b]pyridin-7-yl)morpholine], on PIKFYVE [1] (Table 3), the 50% inhibitory concentration (IC50) is 10 to 100 nM. Further, the EC50 at PIKFYVE [2] lay within 500 to 5000 nM.

The compound `CO[C@@H](CO)c1nc(N2CCOCC2)cc(-n2ccc(-c3csc4ccccc34)n2)n1` (single isomer, unassigned) [Compound 259] had an IC50 against PIKFYVE [1] (Table 3) of 3 to 10 nM. The half-maximal effective concentration (EC50) at PIKFYVE [2] was in the range of 100 to 500 nM.

On PIKFYVE [1] (Table 3), `CO[C@H](CO)c1nc(N2CCOCC2)cc(-n2ccc(-c3cccc4[nH]ccc34)n2)n1` [Compound 268, (S)-2-(4-(3-(1H-indol-4-yl)-1H-pyrazol-1-yl)-6-morpholinopyrimidin-2-yl)-2-methoxyethan-1-ol] returned an IC50 of 10 to 100 nM. Besides, the concentration giving a half-maximal response (EC50) on PIKFYVE [2] was in the range of 500 to 5000 nM.

As for `CN(C)Cc1cc(-c2ccccc2)nn1-c1cc(N2CCOCC2)nc(OCCc2cnn(C)c2)n1` [Compound 75, N,N-dimethyl-1-(1-(2-(2-(1-methyl-1H-pyrazol-4-yl)ethoxy)-6-morpholinopyrimidin-4-yl)-3-phenyl-1H-pyrazol-5-yl)methanamine], the half-maximal inhibitory concentration (IC50) on PIKFYVE [1] (Table 2) is 5 to 100 nM. The compound further gave an EC50 on PIKFYVE [2] of 100 to 500 nM.

Take `Cc1cccc(-c2ccn(-c3cc(N4CCOCC4)nc(O)n3)n2)c1` [Compound 106, 4-morpholino-6-(3-(m-tolyl)-1H-pyrazol-1-yl)pyrimidin-2-ol]: the IC50 against PIKFYVE [1] (Table 3) fell in the range of 10 to 100 nM. For the same compound, the EC50 on PIKFYVE [2] is 500 to 5000 nM.

`COC(CO)(c1ccccc1)c1nc(N2CCOCC2)cc(-n2ccc(-c3cccc(C)c3)n2)n1` (stereo not drawn) [Compound 229, 2-methoxy-2-(4-morpholino-6-(3-(m-tolyl)-1H-pyrazol-1-yl)pyrimidin-2-yl)-2-phenylethan-1-ol]: at PIKFYVE [1] (Table 3), the 50% inhibitory concentration (IC50) was 3 to 10 nM. This compound yielded an EC50 on PIKFYVE [2] of 100 to 500 nM.

At PIKFYVE [1] (Table 3), `Cc1ccccc1-c1ccn(-c2cc(N3CCOCC3)nc(OCCc3cnn(C)c3)n2)n1` [Compound 125, 4-(2-(2-(1-methyl-1H-pyrazol-4-yl)ethoxy)-6-(3-(o-tolyl)-1H-pyrazol-1-yl)pyrimidin-4-yl)morpholine] showed an IC50 of 10 to 100 nM. This compound also registered an EC50 at PIKFYVE [2] of 100 to 500 nM.
